# Test results: publication PMC11472310, “Distinctive Immune Signatures Driven by Structural Alterations in Desmuramylpeptide NOD2 Agonists” (Journal of Medicinal Chemistry, 2024)
# Assay: Kinetic solubility (method of Hoelke et al.)
# Assay type: physicochemical
# From the text: Park et al. have shown that the degree of saturation of fatty acids exerts a profound impact on permeability of fatty acylated peptides—a higher degree of unsaturation results in higher permeability.[43] PUFA can also induce significant biophysical perturbations upon incorporation into membrane phospholipids.[67],[68] […] Given that the hydrophobicity of fatty acyl residues in general reduces as the number of unsaturated sites increases,[69],[70] we decided to ascertain how such structural modifications translate to the kinetic solubility of the molecule as a whole. […] The acylation with PUFA thus provides an elegant, albeit counterintuitive, approach, by which permeability of the molecule as a whole as well as its capacity for liposomal encapsulation can be enhanced without completely abolishing its aqueous solubility.
solubility kinetic,diminished solubility compared to parent compound 1 (kinetic solubility),Compound
178 µM,,"CCCC(=O)Oc1ccc(/C=C/C(=O)NCC(=O)N[C@H](C(=O)N[C@H](CCC(=O)OCC)C(=O)OCC)C(C)C)cc1OC [Compound 3, Diethyl ((E)-3-(4-(Butyryloxy)-3-methoxyphenyl)acryloyl)glycyl-L-valyl-D-glutamate]"
105 µM,4 factor,"CC/C=C\C/C=C\C/C=C\C/C=C\C/C=C\CCCC(=O)Oc1ccc(/C=C/C(=O)NCC(=O)N[C@H](C(=O)N[C@H](CCC(=O)OCC)C(=O)OCC)C(C)C)cc1OC [Compound 23, Diethyl ((E)-3-(4-(((5Z,8Z,11Z,14Z,17Z)-Icosa-5,8,11,14,17-pentaenoyl)oxy)-3-methoxyphenyl)acryloyl)glycyl-L-valyl-D-glutamate]"
